Experimental data reported in publication PMC8539250, “Synthesis and Anti-HIV Activity of a Novel Series of Isoquinoline-Based CXCR4 Antagonists” (Molecules, 2021).
Read-outs that look alike come from different tables or passages of the source.

Legend:
CXCR4 [1] = target: T1, CXCR4 (Homo sapiens, UniProt P61073); experiment: CXCL12AF647 competition binding assay with Jurkat cells (flow cytometry); design: endogenous in cells; host or cells: Jurkat cells
Method: (§1) First, the ability of the compounds to compete with fluorescently labeled CXCL12 (CXCL12^AF647) for binding at CXCR4 was determined. […] Finally, given the role of CXCR4 as a major coreceptor for HIV entry, the antiviral activity of the compounds against the X4-tropic wild type HIV-1 NL4–3 strain and the HIV-2 ROD strain was determined in MT-4 cells. In parallel, the cytotoxicity of the compounds for uninfected MT-4 cells was assessed.
The CXCL12^AF647 binding assay with Jurkat cells has been described previously. Briefly, Jurkat cells were resuspended in assay buffer [Hank’s Balanced Salt Solution (HBSS, Thermo Fisher Scientific), 20 mM HEPES buffer, 0.2% bovine serum albumin (Sigma-Aldrich), pH 7.4] at 3 × 10^5 cells per sample and then treated with various concentrations of the compound at room temperature for 15 min. Afterwards, the cells were incubated with 2.9 nM CXCL12^AF647 (in assay buffer) at room temperature for 30 min in the dark. Cells were fixed in 1% paraformaldehyde in DPBS and specific CXCL12^AF647 binding [i.e., mean fluorescence intensity (MFI)] was quantified by flow cytometry (FACSCanto^TM II; Becton Dickinson). Data were analyzed with FlowJo® Software. The 50% inhibitory concentration (IC50) was calculated for each compound relative to the negative (i.e., autofluorescence of untreated and unlabeled cells) and positive (i.e., untreated cells exposed to CXCL12^AF647 only) control.

HIV-2 ROD = experiment: Anti-HIV-2 assay in MT-4 cells (tetrazolium-based colorimetric, cytopathic effect); assay type: cell-based; settings: Human immunodeficiency virus 2, MT4
Method: (§2) First, the ability of the compounds to compete with fluorescently labeled CXCL12 (CXCL12^AF647) for binding at CXCR4 was determined. Second, since binding of CXCL12 to CXCR4 results into a transient increase of cytosolic calcium levels, the inhibition of this CXCL12-induced calcium mobilization by the various compounds was also investigated. […] In parallel, the cytotoxicity of the compounds for uninfected MT-4 cells was assessed. […] The CD4 cell line MT-4 was obtained from the American Type Culture Collection (Rockville, MD, USA) and cultured in RPMI 1640 medium (Gibco BRL, Gaithersburg, MD, USA) with 10% heat-inactivated fetal calf serum (Biowhittaker Europe, Verviers, Belgium) and 2 mmol/L L-glutamine (Gibco BRL). […] The anti-HIV-1 and anti-HIV-2 activity in MT-4 cells was determined using a tetrazolium-based colorimetric assay. […] Threefold dilutions of the drugs in 100 μL medium were added to duplicate wells of 96-well flat bottom plates (Iwaki Glass). […] The cytopathic effect induced by the virus was checked regularly microscopically. […] Each assay was performed at least three times. […] Absorbance was recorded using the VersaMax ELISA™ microplate reader (Molecular Devices) and analyzed with the Softmax Pro® software (Molecular Devices, Version 4.0, www.moleculardevices.com, accessed on 10 January 2015). Using mock-infected cells, the cytotoxic concentration 50 (CC50) of each compound was investigated.

CXCR4 [2] = target: T1, CXCR4; experiment: CXCL12-induced calcium mobilization assay in U87.CD4.CXCR4 cells (FLIPR); assay type: cell-based; settings: concentration needed to inhibit CXCL12-induced calcium signaling by 50%, 6.25 nM CXCL12, mean ± SD
Method: as §1
The calcium mobilization assay has been described in detail previously. U87.CD4.CXCR4 cells (2 × 10^4 cells per well in DMEM/10% FBS/0.01 M HEPES) were seeded in gelatin-coated (Sigma-Aldrich; 0.1% gelatin in DPBS) black-walled 96-well plates and incubated overnight at 37 °C and 5% CO2. The next day, cells were loaded with the fluorescent calcium indicator Fluo-2 acetoxymethyl (AM) ester (4 μM; Abcam) and incubated at room temperature in the dark for 45 min. Then, cells were incubated with various concentrations of the compounds for 10 min prior to the addition of 6.25 nM CXCL12 (in assay buffer). Fluctuations in intracellular calcium levels were measured in real time by the FLIPR Tetra® (Molecular Devices, Sunnyvale, CA, USA) in all 96 wells simultaneously. The response over baseline (after CXCL12 addition) was calculated with the ScreenWorks 4.0® software (Molecular Devices, Version 4.0, www.moleculardevices.com, accessed on 10 January 2015) by dividing the obtained relative light units (RLUs) through the base line measured just before CXCL12 addition. From this the IC50 value for each compound was determined taking into account the negative (i.e., untreated cells without CXCL12 stimulation) and positive (i.e., untreated cells with CXCL12 addition) control samples.

[3] = Cytotoxicity in mock-infected MT-4 cells; assay type: cell-based; settings: human, mock-infected (uninfected) MT-4 cells, concentration reducing viability of mock-infected MT4 cells by 50%; mean ± SD
Method: (§3) First, the ability of the compounds to compete with fluorescently labeled CXCL12 (CXCL12^AF647) for binding at CXCR4 was determined. Second, since binding of CXCL12 to CXCR4 results into a transient increase of cytosolic calcium levels, the inhibition of this CXCL12-induced calcium mobilization by the various compounds was also investigated. […] In parallel, the cytotoxicity of the compounds for uninfected MT-4 cells was assessed. […] The CD4 cell line MT-4 was obtained from the American Type Culture Collection (Rockville, MD, USA) and cultured in RPMI 1640 medium (Gibco BRL, Gaithersburg, MD, USA) with 10% heat-inactivated fetal calf serum (Biowhittaker Europe, Verviers, Belgium) and 2 mmol/L L-glutamine (Gibco BRL). The anti-HIV-1 and anti-HIV-2 activity in MT-4 cells was determined using a tetrazolium-based colorimetric assay. This assay been described in detail before. Threefold dilutions of the drugs in 100 μL medium were added to duplicate wells of 96-well flat bottom plates (Iwaki Glass). […] The cytopathic effect induced by the virus was checked regularly microscopically. […] The absorbance was then recorded at 490 nm with a 96-well plate reader and compared with four cell control replicates (cells without virus and drugs) and four virus control wells (cells with virus but without drug). Each assay was performed at least three times. […] Absorbance was recorded using the VersaMax ELISA™ microplate reader (Molecular Devices) and analyzed with the Softmax Pro® software (Molecular Devices, Version 4.0, www.moleculardevices.com, accessed on 10 January 2015). Using mock-infected cells, the cytotoxic concentration 50 (CC50) of each compound was investigated.

HIV-1 NL4.3 = experiment: Anti-HIV-1 assay in MT-4 cells (tetrazolium-based colorimetric, cytopathic effect); assay type: cell-based; settings: Human immunodeficiency virus 1, MT4
Method: as §2

MT-4 cells = experiment: Cytotoxicity in mock-infected MT-4 cells; assay type: cell-based
Method: as §3

[4] = concentration needed to inhibit CXCL12 receptor binding by 50%, Jurkat cells, 2.9 nM CXCL12AF647, mean ± SD
[5] = 50% protection of MT-4 cells against HIV-induced cytopathicity, mean ± SD, read-out: HIV-2 ROD EC50
[6] = 50% protection of MT-4 cells against HIV-induced cytopathicity, mean ± SD, read-out: HIV-1 NL4.3 EC50
[7] = MT-4 cells, read-out: EC50 against HIV-2
[8] = MT-4 cells, read-out: EC50 against HIV-1

T1 sequence (P61073 whole entry): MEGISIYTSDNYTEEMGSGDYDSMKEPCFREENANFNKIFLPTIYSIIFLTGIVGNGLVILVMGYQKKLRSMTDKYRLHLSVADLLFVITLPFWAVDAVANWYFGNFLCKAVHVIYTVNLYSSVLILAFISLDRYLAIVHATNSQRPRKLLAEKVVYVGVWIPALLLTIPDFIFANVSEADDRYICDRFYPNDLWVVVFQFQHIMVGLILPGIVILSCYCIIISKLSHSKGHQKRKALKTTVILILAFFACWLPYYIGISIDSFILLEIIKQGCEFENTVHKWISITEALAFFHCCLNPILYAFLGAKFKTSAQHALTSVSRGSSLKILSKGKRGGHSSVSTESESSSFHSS

IC50 (CXCR4 [1]; [4]) [nM] | EC50 (HIV-2 ROD; [5]) [nM] | IC50 (CXCR4 [2]) [nM] | EC50 (HIV-1 NL4.3; [6]) [nM] | IC50 (CXCR4 [1]; competition with CXCL12 for binding to CXCR4) [nM] | EC50 (HIV-2 ROD; [7]) [nM] | EC50 (HIV-1 NL4.3; [8]) [nM] | SMILES | CC50 at 4 d [3] [nM] | cytotoxicity for the MT4 cell line (in words) (MT-4 cells) | CC50 (MT-4 cells; concentration reducing viability of mock-infected MT4 cells by 50%, mean ± SD) [nM]
6.2 ± 0.57 | 170 ± 160 | 180 ± 23 | 230 ± 210 | 0.6 |  |  | Cc1cccnc1CN(CCCCN)Cc1ccccn1 [Compound 25, N1-((3-Methylpyridin-2-yl)methyl)-N1-(pyridin-2-ylmethyl)butane-1,4-diamine] | 79800 ± 13100 |  | 
 | 58 ± 22 |  | 58 ± 71 |  | < 100 | < 100 | NCCCCN(Cc1ccccn1)C1CCCc2cccnc21 (stereo not shown) [Compound 20, N1-(Pyridin-2-ylmethyl)-N1-(5,6,7,8-tetrahydroquinolin-8-yl)butane-1,4-diamine] | 55400 ± 720 | lack cytotoxicity | 
890 ± 460 | > 9270 | 3850 ± 190 | > 9270 |  |  |  | COc1ccc2c(CN(CCCCN)Cc3ncccc3C)nccc2c1 [Compound 24b, N1-((6-Methoxyisoquinolin-1-yl)methyl)-N1-((3-methylpyridin-2-yl)methyl)butane-1,4-diamine] | 9270 ± 460 |  | 
0.64 ± 0.17 | 3.8 ± 0.29 | 6.1 ± 1 | 6.2 ± 5.9 |  | < 100 | < 100 | Cc1cccnc1CN(CCCCN)Cc1nccc2cc(F)ccc12 [Compound 24c, N1-((6-Fluoroisoquinolin-1-yl)methyl)-N1-((3-methylpyridin-2-yl)methyl)butane-1,4-diamine] | 31000 | lack cytotoxicity | 30800 ± 880
26 ± 14 | 2290 ± 350 | 930 ± 720 | 770 ± 290 |  |  |  | Cc1cccnc1CN(CCCCN)Cc1nccc2ccccc12 [Compound 24e, N1-(Isoquinolin-1-ylmethyl)-N1-((3-methylpyridin-2-yl)methyl)butane-1,4-diamine] | 40900 ± 6530 |  | 
7.2 ± 3.2 | 42 ± 13 | 25 ± 8.1 | 74 ± 27 |  |  |  | COc1cc2ccnc(CN(CCCCN)C3CCCc4cccnc43)c2cc1OC (stereo not shown) [Compound 19a, N1-((6,7-Dimethoxyisoquinolin-1-yl)methyl)-N1-(5,6,7,8-tetrahydroquinolin-8-yl)butane-1,4-diamine] | > 100000 |  | 

Second part, the compound before the results:

SMILES | IC50 (CXCR4 [1]; [4]) [nM] | EC50 (HIV-2 ROD; [5]) [nM] | IC50 (CXCR4 [2]) [nM] | EC50 (HIV-1 NL4.3; [6]) [nM] | IC50 (CXCR4 [1]; competition with CXCL12 for binding to CXCR4) [nM] | EC50 (HIV-2 ROD; [7]) [nM] | EC50 (HIV-1 NL4.3; [8]) [nM] | CC50 at 4 d [3] [nM] | cytotoxicity for the MT4 cell line (in words) (MT-4 cells) | CC50 (MT-4 cells; concentration reducing viability of mock-infected MT4 cells by 50%, mean ± SD) [nM]
NCCCCN(Cc1nccc2cc(F)ccc12)C1CCCc2cccnc21 (stereo not shown) [Compound 19c, N1-((6-Fluoroisoquinolin-1-yl)methyl)-N1-(5,6,7,8-tetrahydroquinolin-8-yl)butane-1,4-diamine] | 8.9 ± 5.6 | 11 ± 5.6 | 33 ± 21 | 16 ± 12 |  |  |  | 18100 ± 6820 |  | 
COc1cc2ccnc(CN(CCCCN)Cc3ncccc3C)c2cc1OC [Compound 24a, N1-((6,7-dimethoxyisoquinolin-1-yl)methyl)-N1-((3-methylpyridin-2-yl)methyl)butane-1,4-diamine] | 3.2 ± 0.99 | 24 ± 1.8 | 13 ± 5.3 | 23 ± 8 |  | < 100 | < 100 | > 100000 | lack cytotoxicity | 
Cc1cccnc1CN(CCCCN)Cc1nccc2cc(Br)ccc12 [Compound 24d, N1-((6-Bromoisoquinolin-1-yl)methyl)-N1-((3-methylpyridin-2-yl)methyl)butane-1,4-diamine] | 39 ± 24 | 2540 ± 910 | 690 ± 230 | 2540 ± 910 |  |  |  | 29500 ± 9760 |  | 
COc1ccc2c(CN(CCCCN)C3CCCc4cccnc43)nccc2c1 (stereo not shown) [Compound 19b, N1-((6-Methoxyisoquinolin-1-yl)methyl)-N1-(5,6,7,8-tetrahydroquinolin-8-yl)butane-1,4-diamine] | 2.5 ± 1.2 | 77 ± 19 | 28 ± 4.9 | 61 ± 31 |  |  |  | 11100 ± 540 |  | 
NCCCCN(Cc1nccc2cc(Br)ccc12)C1CCCc2cccnc21 (stereo not shown) [Compound 19d, N1-((6-Bromoisoquinolin-1-yl)methyl)-N1-(5,6,7,8-tetrahydroquinolin-8-yl)butane-1,4-diamine] | 26 ± 1.7 | 550 ± 360 | 440 ± 210 | 550 ± 360 |  |  |  | 43600 ± 1770 |  | 
c1cc(CN2CCCNCCNCCCNCC2)ccc1CN1CCCNCCNCCCNCC1 [Plerixafor, reference compound] |  | 8.1 ± 4.2 |  | 4.9 ± 3.2 |  |  |  | 6290 ± 720 |  | 
